Assay: Ability to inhibit human tissue plasminogen activator stimulator

- Ki: 245 µM
SMILES: Cc1ccc(N=C(N)N)nc1 [N-(5-Methyl-pyridin-2-yl)-guanidine]
